Data set [1] in a line: Porcine drug elution PK study of dual drug eluting coating. Format: in vivo. Particulars: after 8 days of implantation, FIG. 11 stent (sirolimus + cilostazol in one EVA/BMA layer, 100 μg BMA overcoat). The text has this:
Another critical parameter for the performance of the thrombus resistance of a device coated with cilostazol is the duration of the drug release from the coating. This is of particular significance in the two weeks after device implantation. In the porcine drug elution PK studies of the dual drug eluting coating, both cilostazol and sirolius were slowly released from the coating, resulting in a sustained drug release profile. The purpose of the porcine PK study is to assess the local pharmacokinetics of a drug eluting stent at a given implantation time. Normally three stents are implanted in three different coronary arteries in a pig for a given time point and then retrieved for total drug recovery analysis. The stents are retrieved at predetermined time points; namely, 1, 3 and 8 days. The stents are extracted and the total amount of drug remaining on the stents is determined by analysis utilizing HPLC (high performance liquid chromatography) for total drug amount. The difference between the original amount of drug on the stent and the amount of drug retrieved at a given time represents the amount of drug released in that period. The continuous release of drug into surrounding arterial tissue is what prevents the neointimal growth and restenosis in the coronary artery. A normal plot represents the percentage of total drug released (%, y-axis) vs. time of implantation (day, x-axis). […]

The nature of data set [2]: In vitro release kinetics of sirolimus and cilostazol from coated stents. Type of data set: physicochemical.
The nature of data set [3]: Cumulative in vivo drug release from reservoir dual drug eluting stent. Particulars: 30 days; compared to cilostazol. The text has this: Referring to FIG. 29, there is illustrated the cumulative in vivo drug release percentages for each drug over a thirty day period. Curve 2902 represents the profile for cilostazol while curve 2904 represents the profile for sirolimus. FIG. 30 is a graphical representation of the amount of each drug, in micrograms, released in vivo. Curve 3002 represents the profile for cilostazol while curve 3004 represents the profile for sirolimus. The curves in the figures illustrate that both the drugs elute independently of each other with minimal or substantially no interaction. […] Since the amount of drug (by weight) is different for the drugs in their respective reservoirs, the total amount of drug released at thirty (30) days was higher for sirolimus as compared to cilostazol.

Each structure is given as a SMILES string.

For `O=C1CCc2cc(OCCCCc3nnnn3C3CCCCC3)ccc2N1` [cilostazol, 6[4-(1-cyclohexyl-1H-tetrazol-5-yl)-butoxy]-3,4-dihydro-2-(1H)-quinolinone], in data set [1], the “drug remained in the drug coating” value is reported as about 80%. In addition, in data set [2] (200 μg BMA diffusion overcoat (FIG. 4) versus 100 μg (FIG. 6)), the “in vitro drug release rate” value is listed as “comparatively slower”. Moreover, in data set [2] (FIG. 11 stent (sirolimus + cilostazol in one EVA/BMA layer, 100 μg BMA overcoat), FIG. 10), the in vitro release is given as about 35%.

For `CO[C@H]1C[C@@H]2CC[C@@H](C)[C@@](O)(O2)C(=O)C(=O)N2CCCC[C@H]2C(=O)O[C@H]([C@H](C)C[C@@H]2CC[C@@H](O)[C@H](OC)C2)CC(=O)[C@H](C)/C=C(\C)[C@@H](O)[C@@H](OC)C(=O)[C@H](C)C[C@H](C)/C=C/C=C/C=C/1C` [rapamycin], the “drug remained in the drug coating” value in data set [1] is recorded as about 80%. Besides, in data set [3], the “total amount of drug released (by weight)” value is “higher”.
